Biological target: HPK1 (Homo sapiens (Human), UniProt Q92918)
Test: HPK1 Lantha binding assay ("Lanth")
Conditions: binding assays; Morrison Ki fit
Procedure: Example B2: HPK1 Lantha Binding Assay (“Lanth”)
Procedure: I. Compound Dilution:
The compounds to be tested were diluted by preparing 12.5 uL/well of 5 mM compound (100×) in columns 2 and 13 and 10 ul/well of DMSO in columns 3-12, 14-23, and wells A1-H1 and I24-P24 of the compound plate using a Bravo liquid handling platform. For the reference compound, the top concentration was 1 mM. To the plate was added 10 ul 2 mM staurosporine in wells J1-P1 and A24-H24. A 11 point 5-fold compound serial dilution was performed using the Bravo liquid handling platform. From the plate were transferred 2.5 ul of the solutions from column 2 and column 13 to the 10 ul of DMSO in columns 3 and 14 & so on. The compound plate was centrifuged at 2500 rpm for 1 min. From the compound plate was transferred 80 nl of the compounds into an assay plate using the Echo liquid handler system. One compound plate makes two assay plates. Each assay plate is sealed and stored in an N2 cabinet.
The following assay concentrations and times were used: 2 nM HPK1, 2 nM Eu-Anti-GST Ab, and 15 nM Tracer222, with 60 min incubation time.
III. HPK Lantha Binding Assay:
For the binding assay, 4 ul 2×HPK1 and Eu-anti-GST antibody were added to each well of the assay plate using a Multidrop reagent dispenser. The solutions were incubated in a 23 C incubator for 1 h. To each well of the assay plate was added 4 ul 2× Tracer-222 using a Multidrop reagent dispenser. The solutions were again incubated in a 23 C incubator for 1 h. The results of the assay were read using an Envision plate reader with the following parameters: TR_FRET, 340 ex/615 and 665em; 100 usec Delay; and 200 usec integration.
Compound Ki was analyzed using Morrison ki fit model in XL-fit • a. fit=(1−((((E+x)+(Ki*(1+(S/Kd))))−(((((E+x)+(Ki*(1+(S/Kd))))^2)−((4*E)*x))^0.5))/(2*E))) • res=(y−fit) • b. Parameters: • E=enzyme concentration • S=Tracer222 concentration, Kd=Tracer222 Kd • All measurements reported using the same units (uM)
Exemplary compounds were tested in the binding assays.

Sequence of HPK1 (Q92918 1-346 limits assumed): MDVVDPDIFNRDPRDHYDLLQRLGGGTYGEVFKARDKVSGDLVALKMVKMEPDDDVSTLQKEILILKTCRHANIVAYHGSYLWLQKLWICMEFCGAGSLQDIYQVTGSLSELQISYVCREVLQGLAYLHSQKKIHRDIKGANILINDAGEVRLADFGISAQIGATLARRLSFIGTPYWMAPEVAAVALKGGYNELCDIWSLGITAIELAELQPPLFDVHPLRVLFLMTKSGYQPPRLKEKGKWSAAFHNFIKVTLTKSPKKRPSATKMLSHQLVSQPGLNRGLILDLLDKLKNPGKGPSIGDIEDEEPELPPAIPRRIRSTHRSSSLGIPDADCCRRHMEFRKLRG

| Structure (SMILES) | Ki |
| --- | --- |
| CN(C)C(=O)c1c(N)ccc(-c2cnc3c(c2Cl)[C@]2(CC[C@H](n4cccn4)C2)CN3)c1F (relative stereo) [Compound 126a, 6-Amino-3-((1R,3S)-4′-chloro-3-(1H-pyrazol-1-yl)-1′,2′-dihydrospiro[cyclopentane-1,3′-pyrrolo[2,3-b]pyridin]-5′-yl)-2-fluoro-N,N-dimethylbenzamide] | 18.5 nM |
| CN(C)C(=O)c1c(N)ccc(-c2cnc3c(c2Cl)[C@]2(CC[C@H](CN)C2)CN3)c1F (relative stereo) [Compound 127a, 6-Amino-3-((1R,3S)-3-(aminomethyl)-4′-chloro-1′,2′-dihydrospiro[cyclopentane-1,3′-pyrrolo[2,3-b]pyridin]-5′-yl)-2-fluoro-N,N-dimethylbenzamide] | 165 nM |
| CN(C)C(=O)c1c(N)ccc(-c2cnc3c(c2Cl)[C@]2(CC[C@](C)(C(N)=O)C2)CN3)c1F (relative stereo) [Compound 132a, (1R,3S)-5′-(4-Amino-3-(dimethylcarbamoyl)-2-fluorophenyl)-4′-chloro-3-methyl-1′,2′-dihydrospiro[cyclopentane-1,3′-pyrrolo[2,3-b]pyridine]-3-carboxamide] | 2.08 nM |
| CN(C)C(=O)c1c(N)ccc(-c2cnc3c(c2Cl)[C@]2(CC[C@H](n4ccc(N)n4)C2)CN3)c1F (relative stereo) [Compound 133a, 6-Amino-3-((1R,3S)-3-(3-amino-1H-pyrazol-1-yl)-4′-chloro-1′,2′-dihydrospiro[cyclopentane-1,3′-pyrrolo[2,3-b]pyridin]-5′-yl)-2-fluoro-N,N-dimethylbenzamide] | 34 nM |
| CN(C)C(=O)c1c(N)ccc(-c2cnc3c(c2Cl)[C@]2(CC[C@H](n4nccc4N)C2)CN3)c1F (relative stereo) [Compound 134a, 6-Amino-3-((1R,3S)-3-(5-amino-1H-pyrazol-1-yl)-4′-chloro-1′,2′-dihydrospiro[cyclopentane-1,3′-pyrrolo[2,3-b]pyridin]-5′-yl)-2-fluoro-N,N-dimethylbenzamide] | 16.1 nM |
| CN(C)C(=O)c1c(N)ccc(-c2cnc3c(c2Cl)[C@]2(CC[C@H](CC(N)=O)C2)CN3)c1F (relative stereo) [Compound 135a, 6-Amino-3-((1R,3S)-3-(2-amino-2-oxoethyl)-4′-chloro-1′,2′-dihydrospiro[cyclopentane-1,3′-pyrrolo[2,3-b]pyridin]-5′-yl)-2-fluoro-N,N-dimethylbenzamide] | 7.16 nM |
| CC[C@H]1C[C@@]12CNc1ncc(-c3ccc(N)c(C(=O)N(C)C)c3F)c(Cl)c12 (relative stereo) [Compound 150a, 6-Amino-3-((1R,2S)-4′-chloro-2-ethyl-1′,2′-dihydrospiro[cyclopropane-1,3′-pyrrolo[2,3-b]pyridin]-5′-yl)-2-fluoro-N,N-dimethylbenzamide] | 3.3 nM |
| CC[C@@H]1C[C@@]12CNc1ncc(-c3ccc(N)c(C(=O)N(C)C)c3F)c(Cl)c12 (relative stereo) [Compound 150c, 6-Amino-3-((1R,2R)-4′-chloro-2-ethyl-1′,2′-dihydrospiro[cyclopropane-1,3′-pyrrolo[2,3-b]pyridin]-5′-yl)-2-fluoro-N,N-dimethylbenzamide] | 2.51 nM |
| CN(C)C(=O)c1c(N)ccc(-c2cnc3c(c2Cl)[C@]2(CC[C@@](C)(C#N)C2)CN3)c1F (relative stereo) [Compound 151a, 6-Amino-3-((1R,3R)-4′-chloro-3-cyano-3-methyl-1′,2′-dihydrospiro[cyclopentane-1,3′-pyrrolo[2,3-b]pyridin]-5′-yl)-2-fluoro-N,N-dimethylbenzamide] | 42 nM |
| CC[C@]1(C#N)CC[C@@]2(CNc3ncc(-c4ccc(N)c(C(=O)N(C)C)c4F)c(Cl)c32)C1 (relative stereo) [Compound 152a, 6-Amino-3-((1R,3S)-4′-chloro-3-cyano-3-ethyl-1′,2′-dihydrospiro[cyclopentane-1,3′-pyrrolo[2,3-b]pyridin]-5′-yl)-2-fluoro-N,N-dimethylbenzamide] | 4.35 nM |
| CC[C@]1(C(N)=O)CC[C@@]2(CNc3ncc(-c4ccc(N)c(C(=O)N(C)C)c4F)c(Cl)c32)C1 (relative stereo) [Compound 153a, (1R,3S)-5′-(4-Amino-3-(dimethylcarbamoyl)-2-fluorophenyl)-4′-chloro-3-ethyl-1′,2′-dihydrospiro[cyclopentane-1,3′-pyrrolo[2,3-b]pyridine]-3-carboxamide] | 7.16 nM |
| Cc1noc([C@@]2(C)CC[C@@]3(CNc4ncc(-c5ccc(N)c(C(=O)N(C)C)c5F)c(Cl)c43)C2)n1 (relative stereo) [Compound 156a, 6-Amino-3-((1R,3S)-4′-chloro-3-methyl-3-(3-methyl-1,2,4-oxadiazol-5-yl)-1′,2′-dihydrospiro[cyclopentane-1,3′-pyrrolo[2,3-b]pyridin]-5′-yl)-2-fluoro-N,N-dimethylbenzamide] | 2.63 nM |
| Cc1nc(N)nn1[C@H]1CC[C@@]2(CNc3ncc(-c4ccc(N)c(C(=O)N(C)C)c4F)c(Cl)c32)C1 (relative stereo) [Compound 157a, 6-Amino-3-((1R,3S)-3-(3-amino-5-methyl-1H-1,2,4-triazol-1-yl)-4′-chloro-1′,2′-dihydrospiro[cyclopentane-1,3′-pyrrolo[2,3-b]pyridin]-5′-yl)-2-fluoro-N,N-dimethylbenzamide] | 109 nM |
| Cc1nc(N)n([C@H]2CC[C@@]3(CNc4ncc(-c5ccc(N)c(C(=O)N(C)C)c5F)c(Cl)c43)C2)n1 (relative stereo) [Compound 158a, 6-Amino-3-((1R,3S)-3-(5-amino-3-methyl-1H-1,2,4-triazol-1-yl)-4′-chloro-1′,2′-dihydrospiro[cyclopentane-1,3′-pyrrolo[2,3-b]pyridin]-5′-yl)-2-fluoro-N,N-dimethylbenzamide] | 132 nM |
| Cc1ccn([C@H]2CC[C@@]3(CNc4ncc(-c5ccc(N)c(C(=O)N(C)C)c5F)c(Cl)c43)C2)n1 (relative stereo) [Compound 159a, 6-Amino-3-((1R,3S)-4′-chloro-3-(3-methyl-1H-pyrazol-1-yl)-1′,2′-dihydrospiro[cyclopentane-1,3′-pyrrolo[2,3-b]pyridin]-5′-yl)-2-fluoro-N,N-dimethylbenzamide] | 32.2 nM |
| Cc1cc(C#N)n([C@H]2CC[C@@]3(CNc4ncc(-c5ccc(N)c(C(=O)N(C)C)c5F)c(Cl)c43)C2)n1 (relative stereo) [Compound 161a] | 51 nM |
| Cc1cc(C)n([C@H]2CC[C@@]3(CNc4ncc(-c5ccc(N)c(C(=O)N(C)C)c5F)c(Cl)c43)C2)n1 (relative stereo) [Compound 163a, 6-Amino-3-((1R,3S)-4′-chloro-3-(3,5-dimethyl-1H-pyrazol-1-yl)-1′,2′-dihydrospiro[cyclopentane-1,3′-pyrrolo[2,3-b]pyridin]-5′-yl)-2-fluoro-N,N-dimethylbenzamide] | 69.3 nM |
| CN(C)C(=O)c1c(N)ccc(-c2cnc3c(c2Cl)[C@]2(CC[C@H](n4cc(C(F)(F)F)cn4)C2)CN3)c1F (relative stereo) [Compound 164a, 6-Amino-3-((1R,3S)-4′-chloro-3-(4-(trifluoromethyl)-1H-pyrazol-1-yl)-1′,2′-dihydrospiro[cyclopentane-1,3′-pyrrolo[2,3-b]pyridin]-5′-yl)-2-fluoro-N,N-dimethylbenzamide] | 6.65 nM |
| COc1c(-c2ccc(N)c(C(=O)N(C)C)c2F)cnc2c1[C@@]1(CN2)C[C@@H]1C (relative stereo) [Compound 165a, 6-Amino-2-fluoro-3-((1R,2S)-4′-methoxy-2-methyl-1′,2′-dihydrospiro[cyclopropane-1,3′-pyrrolo[2,3-b]pyridin]-5′-yl)-N,N-dimethylbenzamide] | 6.41 nM |
| Cc1nccn1[C@H]1CC[C@@]2(CNc3ncc(-c4ccc(N)c(C(=O)N(C)C)c4F)c(Cl)c32)C1 (relative stereo) [Compound 167a, 6-Amino-3-((1R,3S)-4′-chloro-3-(2-methyl-1H-imidazol-1-yl)-1′,2′-dihydrospiro[cyclopentane-1,3′-pyrrolo[2,3-b]pyridin]-5′-yl)-2-fluoro-N,N-dimethylbenzamide] | 163 nM |
| CCc1cnn([C@H]2CC[C@@]3(CNc4ncc(-c5ccc(N)c(C(=O)N(C)C)c5F)c(Cl)c43)C2)c1 (relative stereo) [Compound 170a, 6-Amino-3-((1R,3S)-4′-chloro-3-(4-ethyl-1H-pyrazol-1-yl)-1′,2′-dihydrospiro[cyclopentane-1,3′-pyrrolo[2,3-b]pyridin]-5′-yl)-2-fluoro-N,N-dimethylbenzamide] | 5.54 nM |
| CN(C)C(=O)c1c(N)ccc(-c2cnc3c(c2Cl)[C@]2(CC[C@H](n4cc(Cl)cn4)C2)CN3)c1F (relative stereo) [Compound 171a, 6-Amino-3-((1R,3S)-4′-chloro-3-(4-chloro-1H-pyrazol-1-yl)-1′,2′-dihydrospiro[cyclopentane-1,3′-pyrrolo[2,3-b]pyridin]-5′-yl)-2-fluoro-N,N-dimethylbenzamide] | 6.58 nM |

Source: patent US12208088B2 (Genentech, Inc., priority 2018, dated 2025)
